# Results from patent US12378249B2, “Isoquinoline compounds and uses thereof” (Genentech, Inc., priority 2018, dated 2025).
# Target: HPK1 (Homo sapiens (Human), UniProt Q92918, S171E/T165E)
# Experiment: HPK1-FL HTRF Enzymatic Assay (HTRF)
# Type: biochemical
# Settings: HPK full length T165E S171E 0.125 nM, ATP 1 mM, Biotin-SLP76 100 nM, read-out: HPK1 Ki (nM), H = HTRF
# Summary of the method: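 Full-length HPK1 double mutant, preincubated 30 min with compound, then phosphorylates Biotin-SLP-76 at 1 mM ATP for 60 min in HEPES pH 7.5/MgCl2/TCEP/Brij-35 buffer. Phospho-product detected by TR-FRET (Eu-anti-pSLP76, SA-XL665) after 60 min; 665/620 ratio gives % activity, from which Ki is determined.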
# HPK1, sequence (Q92918 whole entry T165E/S171E): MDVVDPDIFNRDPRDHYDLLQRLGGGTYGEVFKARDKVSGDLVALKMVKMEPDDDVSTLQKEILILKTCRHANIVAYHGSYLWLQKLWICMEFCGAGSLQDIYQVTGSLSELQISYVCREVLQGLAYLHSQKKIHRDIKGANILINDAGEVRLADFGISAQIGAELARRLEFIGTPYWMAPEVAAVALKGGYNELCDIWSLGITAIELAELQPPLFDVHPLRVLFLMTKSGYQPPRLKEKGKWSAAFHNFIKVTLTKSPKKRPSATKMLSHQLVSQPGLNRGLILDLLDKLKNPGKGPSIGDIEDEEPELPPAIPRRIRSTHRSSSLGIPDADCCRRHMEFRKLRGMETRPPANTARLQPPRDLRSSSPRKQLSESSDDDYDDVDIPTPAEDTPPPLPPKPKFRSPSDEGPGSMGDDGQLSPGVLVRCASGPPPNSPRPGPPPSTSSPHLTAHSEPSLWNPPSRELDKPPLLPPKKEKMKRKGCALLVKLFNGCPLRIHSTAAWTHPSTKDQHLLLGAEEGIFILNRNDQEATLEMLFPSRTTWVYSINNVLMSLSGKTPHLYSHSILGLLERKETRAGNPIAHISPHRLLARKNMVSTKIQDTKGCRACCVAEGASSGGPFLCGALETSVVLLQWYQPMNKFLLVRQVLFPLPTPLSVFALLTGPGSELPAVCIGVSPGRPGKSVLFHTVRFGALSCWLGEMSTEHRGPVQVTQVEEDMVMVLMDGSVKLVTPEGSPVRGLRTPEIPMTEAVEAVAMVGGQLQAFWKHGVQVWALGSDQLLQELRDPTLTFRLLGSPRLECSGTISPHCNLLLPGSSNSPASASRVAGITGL
row,Ki [nM],SMILES
1,23.7,"Cc1cc(S(C)(=N)=O)ncc1-c1cc2cc(Nc3cc4n(n3)CC(=O)N(C)CC4)ncc2cc1F (centres unmarked) [Compound 178, 2-((7-fluoro-6-(4-methyl-6-(S-methylsulfonimidoyl)pyridin-3-yl)isoquinolin-3-yl)amino)-6-methyl-5,6-dihydro-4H-pyrazolo[1,5-d][1,4]diazepin-7(8H)-one]"
2,0.5,"Cc1c(NC2CNC2)cncc1-c1cc2cc(Nc3cc4n(n3)Cc3nccn3CC4)ncc2cc1F [Compound 179, N-(6-(5-(azetidin-3-ylamino)-4-methylpyridin-3-yl)-7-fluoroisoquinolin-3-yl)-5,6-dihydro-11H-imidazo[1,2-a]pyrazolo[1,5-d][1,4]diazepin-8-amine]"
3,0.026,"CNc1cncc(-c2cc3cc(Nc4cc5n(n4)CC(=O)NCC5)ncc3cc2F)c1C [Compound 181, 2-((7-fluoro-6-(4-methyl-5-(methylamino)pyridin-3-yl)isoquinolin-3-yl)amino)-5,6-dihydro-4H-pyrazolo[1,5-d][1,4]diazepin-7(8H)-one]"
4,0.013,"Cc1c(-c2cc3cc(Nc4cc5n(n4)Cc4nccn4CC5)ncc3cc2F)cnc2c1NCCCO2 [Compound 183, N-(7-fluoro-6-(9-methyl-1,2,3,4-tetrahydropyrido[2,3-b][1,4]oxazepin-8-yl)isoquinolin-3-yl)-5,6-dihydro-11H-imidazo[1,2-a]pyrazolo[1,5-d][1,4]diazepin-8-amine]"
5,0.12,"Cc1c(-c2cc3cc(Nc4cc5n(n4)CC(=O)N(C)CC5)ncc3cc2F)cnc2cn[nH]c12 [Compound 186, 2-((7-fluoro-6-(7-methyl-1H-pyrazolo[4,3-b]pyridin-6-yl)isoquinolin-3-yl)amino)-6-methyl-5,6-dihydro-4H-pyrazolo[1,5-d][1,4]diazepin-7(8H)-one]"
6,0.25,"Cc1c(-c2cc3cc(Nc4cc5n(n4)CC(=O)N(C)CC5)ncc3cc2F)cnc2c1NCN(C)C2=O [Compound 187, 7-(7-fluoro-3-((6-methyl-7-oxo-5,6,7,8-tetrahydro-4H-pyrazolo[1,5-d][1,4]diazepin-2-yl)amino)isoquinolin-6-yl)-3,8-dimethyl-2,3-dihydropyrido[3,2-d]pyrimidin-4(1H)-one]"
7,0.24,"Cc1c(-c2cc3cc(Nc4cc5n(n4)CC(=O)N(C)CC5)ncc3cc2F)cnc2c1CCCO2 [Compound 190, 2-((7-fluoro-6-(5-methyl-3,4-dihydro-2H-pyrano[2,3-b]pyridin-6-yl)isoquinolin-3-yl)amino)-6-methyl-5,6-dihydro-4H-pyrazolo[1,5-d][1,4]diazepin-7(8H)-one]"
8,0.018,"Cc1c(-c2cc3cc(Nc4cc5n(n4)CC(=O)NCC5)ncc3cc2F)cnc2c1NCCC2 [Compound 192, 2-((7-fluoro-6-(4-methyl-5,6,7,8-tetrahydro-1,5-naphthyridin-3-yl)isoquinolin-3-yl)amino)-5,6-dihydro-4H-pyrazolo[1,5-d][1,4]diazepin-7(8H)-one]"
9,23,"Cc1c(-c2cc3cc(Nc4cc5n(n4)CC(=O)N(C)CC5)ncc3cc2F)cnc2c1NS(=O)(=O)CO2 [Compound 193, 2-((7-fluoro-6-(8-methyl-2,2-dioxido-1H,3H-pyrido[3,2-e][1,3,4]oxathiazin-7-yl)isoquinolin-3-yl)amino)-6-methyl-5,6-dihydro-4H-pyrazolo[1,5-d][1,4]diazepin-7(8H)-one]"
10,0.83,"Cc1c(-c2cc3cc(Nc4cc5n(n4)CC(=O)N(C)CC5)ncc3cc2F)cnnc1N [Compound 194, 2-((6-(6-amino-5-methylpyridazin-4-yl)-7-fluoroisoquinolin-3-yl)amino)-6-methyl-5,6-dihydro-4H-pyrazolo[1,5-d][1,4]diazepin-7(8H)-one]"
11,0.26,"Cc1c[nH]c2c(C)c(-c3cc4cc(Nc5cc6n(n5)CC(=O)N(C)CC6)ncc4cc3F)cnc12 [Compound 195, 2-((6-(3,7-dimethyl-1H-pyrrolo[3,2-b]pyridin-6-yl)-7-fluoroisoquinolin-3-yl)amino)-6-methyl-5,6-dihydro-4H-pyrazolo[1,5-d] [1,4]diazepin-7(8H)-one]"
12,0.1,"Cc1c(-c2cc3cc(Nc4cc5n(n4)CC(=O)NCC5)ncc3cc2F)cnc2c1NCCC2=O [Compound 196, 2-((7-fluoro-6-(4-methyl-8-oxo-5,6,7,8-tetrahydro-1,5-naphthyridin-3-yl)isoquinolin-3-yl)amino)-5,6-dihydro-4H-pyrazolo[1,5-d][1,4]diazepin-7(8H)-one]"
13,4.1,"Cc1c(NS(=O)(=O)C2CC2)cncc1-c1cc2cc(Nc3cc4n(n3)CC(=O)N(C)CC4)ncc2cc1F [Compound 197, N-(5-(7-fluoro-3-((6-methyl-7-oxo-5,6,7,8-tetrahydro-4H-pyrazolo[1,5-d][1,4]diazepin-2-yl)amino)isoquinolin-6-yl)-4-methylpyridin-3-yl)cyclopropanesulfonamide]"
14,4.2,"Cc1cc(N2CCNCC2)ncc1-c1cc2cc(Nc3cc4n(n3)CC(=O)N(C)CC4)ncc2cc1F [Compound 198, 2-((7-fluoro-6-(4-methyl-6-(piperazin-1-yl)pyridin-3-yl)isoquinolin-3-yl)amino)-6-methyl-5,6-dihydro-4H-pyrazolo[1,5-d][1,4]diazepin-7(8H)-one]"
15,5,"CNC1CCN(c2cc(C)c(-c3cc4cc(Nc5cc6n(n5)CC(=O)N(C)CC6)ncc4cc3F)cn2)CC1 [Compound 199, 2-((7-fluoro-6-(4-methyl-6-(4-(methylamino)piperidin-1-yl)pyridin-3-yl)isoquinolin-3-yl)amino)-6-methyl-5,6-dihydro-4H-pyrazolo[1,5-d][1,4]diazepin-7(8H)-one]"
16,127,"CN1CCc2cc(Nc3cc4cc(-c5cccc6c5CCNC6)c(F)cc4cn3)nn2CC1=O [Compound 200, 2-((7′-fluoro-1,2,3,4-tetrahydro-[5,6′-biisoquinolin]-3′-yl)amino)-6-methyl-5,6-dihydro-4H-pyrazolo[1,5-d][1,4]diazepin-7(8H)-one]"
17,119,"Cc1[nH]ncc1-c1cc2cc(Nc3cc4n(n3)CC(=O)N(C)CC4)ncc2c(O)c1F [Compound 202, 2-((7-fluoro-8-hydroxy-6-(5-methyl-1H-pyrazol-4-yl)isoquinolin-3-yl)amino)-6-methyl-5,6-dihydro-4H-pyrazolo[1,5-d][1,4]diazepin-7(8H)-one]"
18,97,"Cc1c(-c2cc3cc(Nc4cc5n(n4)CC(=O)N(C)CC5)ncc3cc2F)cnc(=O)n1C [Compound 203, 2-((6-(1,6-dimethyl-2-oxo-1,2-dihydropyrimidin-5-yl)-7-fluoroisoquinolin-3-yl)amino)-6-methyl-5,6-dihydro-4H-pyrazolo[1,5-d][1,4]diazepin-7(8H)-one]"
19,0.18,"Cc1c(CS(C)(=O)=O)cncc1-c1cc2cc(Nc3cc4n(n3)CC(=O)N(C)CC4)ncc2cc1F [Compound 204, 2-((7-fluoro-6-(4-methyl-5-((methylsulfonyl)methyl)pyridin-3-yl)isoquinolin-3-yl)amino)-6-methyl-5,6-dihydro-4H-pyrazolo[1,5-d][1,4]diazepin-7(8H)-one]"
20,22,"Cc1c(CN)cccc1-c1cc2cc(Nc3cc4n(n3)CC(=O)N(C)CC4)ncc2cc1F [Compound 207, 2-((6-(3-(aminomethyl)-2-methylphenyl)-7-fluoroisoquinolin-3-yl)amino)-6-methyl-5,6-dihydro-4H-pyrazolo[1,5-d][1,4]diazepin-7(8H)-one]"
